Experimental data as given in patent US20050282743A1, “Molecular interactions in cells” (Arbor Vita Corporation, priority 2001, published 2005).
Ends that are not written are not given here. Peptide text beside a SMILES is read from it. * marks the point of attachment. Biotin = O=C1N[C@H]2[C@H](CS[C@H]2CCCCC(=O)*)N1

Tests used:
Assay in all cases: G' assay (10 uM PL peptide), results of TABLE 7 and TABLE 12
Type in all cases: binding
[1] = biological target: T1, PDZ protein (GST-PDZ fusion) (Homo sapiens, UniProt Q9UDY2); conditions: PDZ ZO-2, PDZ Domain 1
T1 construct: made in house; host or cells: E. coli (DH5alpha, BL21 or JM109)
T1 sequence (Q9UDY2 1-1190): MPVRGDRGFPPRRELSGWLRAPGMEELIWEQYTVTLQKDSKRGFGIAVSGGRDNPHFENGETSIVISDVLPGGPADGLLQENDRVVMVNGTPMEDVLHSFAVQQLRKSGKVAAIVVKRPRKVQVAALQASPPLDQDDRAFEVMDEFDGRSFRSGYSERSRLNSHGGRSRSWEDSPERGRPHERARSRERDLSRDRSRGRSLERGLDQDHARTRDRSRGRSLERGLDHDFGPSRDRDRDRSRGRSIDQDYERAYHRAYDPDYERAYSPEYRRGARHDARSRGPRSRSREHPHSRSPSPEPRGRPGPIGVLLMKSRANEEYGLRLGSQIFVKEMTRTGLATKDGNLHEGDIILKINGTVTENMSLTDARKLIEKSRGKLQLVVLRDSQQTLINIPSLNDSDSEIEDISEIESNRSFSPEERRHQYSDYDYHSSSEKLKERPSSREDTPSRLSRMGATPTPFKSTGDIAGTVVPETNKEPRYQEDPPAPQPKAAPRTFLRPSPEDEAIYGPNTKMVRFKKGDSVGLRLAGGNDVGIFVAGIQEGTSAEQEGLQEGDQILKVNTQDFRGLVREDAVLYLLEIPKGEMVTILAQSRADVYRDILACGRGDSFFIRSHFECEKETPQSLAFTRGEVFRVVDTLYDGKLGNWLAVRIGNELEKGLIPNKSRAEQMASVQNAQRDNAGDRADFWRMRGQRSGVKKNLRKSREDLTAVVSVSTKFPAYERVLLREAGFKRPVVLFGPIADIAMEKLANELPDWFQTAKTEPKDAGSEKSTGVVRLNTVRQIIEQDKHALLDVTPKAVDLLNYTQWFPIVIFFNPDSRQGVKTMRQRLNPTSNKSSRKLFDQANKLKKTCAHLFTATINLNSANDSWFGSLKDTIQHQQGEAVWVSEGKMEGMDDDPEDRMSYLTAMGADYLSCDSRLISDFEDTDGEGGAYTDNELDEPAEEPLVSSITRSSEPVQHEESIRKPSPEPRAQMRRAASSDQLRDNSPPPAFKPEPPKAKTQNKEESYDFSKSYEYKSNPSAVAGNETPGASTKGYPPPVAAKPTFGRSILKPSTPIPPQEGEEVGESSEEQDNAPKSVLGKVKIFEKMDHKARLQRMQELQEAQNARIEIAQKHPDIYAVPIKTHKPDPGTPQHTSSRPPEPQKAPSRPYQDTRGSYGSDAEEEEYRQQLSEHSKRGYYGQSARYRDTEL
Method in brief: (§1)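 Biotinylated PL peptides at 10 uM (vs 20 uM in G^0 assay) bound to GST-PDZ fusions; PDZ protein at 5 ug/ml unless another concentration listed. Bound peptide read as A450 nm, classified 0–5 (0 = A450 0; 5 = A450 >4 repeated).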

[2] = biological target: T2, PDZ protein (GST-PDZ fusion) (Homo sapiens, UniProt Q9NY99); conditions: PDZ Syntrophin gamma-2, PDZ Domain 1
T2 construct: made in house; host or cells: E. coli (DH5alpha, BL21 or JM109)
T2 sequence (Q9NY99 1-539): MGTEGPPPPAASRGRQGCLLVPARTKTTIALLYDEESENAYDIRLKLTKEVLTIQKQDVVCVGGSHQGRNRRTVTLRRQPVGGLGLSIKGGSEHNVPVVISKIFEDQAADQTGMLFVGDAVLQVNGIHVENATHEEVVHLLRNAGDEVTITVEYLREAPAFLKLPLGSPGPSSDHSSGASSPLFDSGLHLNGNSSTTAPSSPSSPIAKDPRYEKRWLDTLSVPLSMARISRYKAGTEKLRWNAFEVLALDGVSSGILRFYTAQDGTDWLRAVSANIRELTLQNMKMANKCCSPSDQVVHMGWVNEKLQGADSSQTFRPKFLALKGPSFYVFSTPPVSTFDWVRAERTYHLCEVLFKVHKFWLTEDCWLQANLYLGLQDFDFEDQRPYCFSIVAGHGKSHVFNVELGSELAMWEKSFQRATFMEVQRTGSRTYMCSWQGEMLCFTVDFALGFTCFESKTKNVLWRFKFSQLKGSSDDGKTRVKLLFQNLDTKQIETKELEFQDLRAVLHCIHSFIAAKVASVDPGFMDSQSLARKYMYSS
Method in brief: as §1

[3] = biological target: T3, PDZ protein (GST-PDZ fusion) (Homo sapiens, UniProt Q8TEW0); conditions: PDZ PAR3, PDZ Domain 3
T3 construct: made in house; host or cells: E. coli (DH5alpha, BL21 or JM109)
Method in brief: as §1

T3 sequence (Q8TEW0 whole entry, the tested form may be a part): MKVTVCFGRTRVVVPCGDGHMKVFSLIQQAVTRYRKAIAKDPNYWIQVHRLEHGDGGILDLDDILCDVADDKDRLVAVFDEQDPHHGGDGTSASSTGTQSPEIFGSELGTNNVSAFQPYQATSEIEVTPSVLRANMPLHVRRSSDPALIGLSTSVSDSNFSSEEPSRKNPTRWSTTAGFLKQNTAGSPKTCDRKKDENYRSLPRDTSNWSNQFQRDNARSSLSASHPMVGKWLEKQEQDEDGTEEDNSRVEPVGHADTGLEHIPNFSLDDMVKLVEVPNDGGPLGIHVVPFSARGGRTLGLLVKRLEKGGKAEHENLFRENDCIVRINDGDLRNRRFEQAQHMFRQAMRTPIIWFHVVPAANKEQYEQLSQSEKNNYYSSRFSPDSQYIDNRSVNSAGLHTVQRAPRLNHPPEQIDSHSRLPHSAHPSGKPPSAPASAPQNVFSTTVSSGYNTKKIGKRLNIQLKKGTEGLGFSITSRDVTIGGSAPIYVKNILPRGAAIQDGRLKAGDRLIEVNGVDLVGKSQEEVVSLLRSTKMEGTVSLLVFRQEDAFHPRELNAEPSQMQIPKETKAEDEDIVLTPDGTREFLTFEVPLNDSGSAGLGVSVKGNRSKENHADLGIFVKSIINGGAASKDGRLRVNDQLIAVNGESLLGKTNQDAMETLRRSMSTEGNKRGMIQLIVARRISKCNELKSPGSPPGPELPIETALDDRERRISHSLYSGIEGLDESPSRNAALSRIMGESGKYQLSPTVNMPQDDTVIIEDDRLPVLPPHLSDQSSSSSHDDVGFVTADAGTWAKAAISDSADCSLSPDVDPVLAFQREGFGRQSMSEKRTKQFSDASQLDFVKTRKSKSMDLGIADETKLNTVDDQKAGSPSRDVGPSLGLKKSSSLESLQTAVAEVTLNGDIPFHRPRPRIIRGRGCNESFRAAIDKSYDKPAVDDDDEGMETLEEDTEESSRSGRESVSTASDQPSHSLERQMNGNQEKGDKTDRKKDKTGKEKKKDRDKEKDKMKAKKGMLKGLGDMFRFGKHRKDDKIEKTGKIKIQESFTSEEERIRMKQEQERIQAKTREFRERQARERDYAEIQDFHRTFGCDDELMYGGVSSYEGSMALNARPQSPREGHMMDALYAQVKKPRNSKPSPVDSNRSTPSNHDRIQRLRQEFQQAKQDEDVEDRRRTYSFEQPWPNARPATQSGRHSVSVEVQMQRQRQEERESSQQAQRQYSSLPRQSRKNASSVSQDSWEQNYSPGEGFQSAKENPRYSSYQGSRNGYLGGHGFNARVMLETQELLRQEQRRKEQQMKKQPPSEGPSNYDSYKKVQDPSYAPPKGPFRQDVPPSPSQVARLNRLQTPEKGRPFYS

Row | Molecule | Classification [1] | Classification [2] | Classification [3]
1 | CC(C)C[C@H](NC(=O)[C@H](C)NC(=O)[C@@H](NC(=O)[C@H](CCC(=O)O)NC(=O)[C@H](CCCNC(=N)N)NC(=O)[C@H](CCCNC(=N)N)NC(=O)CNC(=O)[C@H](CCC(N)=O)NC(=O)[C@H](CC(C)C)NC(=O)[C@H](CCCNC(=N)N)NC(=O)CNC(=O)CNC(=O)[C@H](CCCNC(=N)N)NC(=O)[C@H](C)NC(=O)[C@H](CO)NC(=O)[C@H](CCCNC(=N)N)NC(=O)CNC(=O)CNC(=O)[C@H](C)NC(=O)[C@H](C)NC(=O)CCCC[C@@H]1SC[C@@H]2NC(=O)N[C@@H]21)[C@@H](C)O)C(=O)O [HPV E6 33 (modified)] (Biotin-AAGGRSARGGRLQGRRETAL-OH; C-terminus assumed) | 1 (A450 nm 0-1) | 1 (A450 nm 0-1) | –
2 | CSCC[C@H](NC(=O)[C@H](C)NC(=O)[C@H](CCCNC(=N)N)NC(=O)CNC(=O)[C@@H](NC(=O)[C@H](Cc1c[nH]c2ccccc12)NC(=O)[C@H](CCCNC(=N)N)NC(=O)CNC(=O)CCCC[C@@H]1SC[C@@H]2NC(=O)N[C@@H]21)[C@@H](C)O)C(=O)N[C@@H](CO)C(=O)N[C@@H](C)C(=O)N[C@@H](Cc1c[nH]c2ccccc12)C(=O)N[C@@H](CCCCN)C(=O)N1CCC[C@H]1C(=O)N[C@H](C(=O)N[C@@H](CCCNC(=N)N)C(=O)N[C@@H](CCCNC(=N)N)C(=O)N[C@@H](CCC(=O)O)C(=O)N[C@H](C(=O)N[C@@H](CCC(=O)O)C(=O)N[C@H](C(=O)O)C(C)C)[C@@H](C)O)[C@@H](C)O [HPV E6 #35 (modified)] (Biotin-GRWTGRAMSAWKPTRRETEV-OH; C-terminus assumed) | 2 (A450 nm 1-2) | 3 (A450 nm 2-3) | –
3 | PPATPSPRLALPAHHNATRL (Biotin-PPATPSPRLALPAHHNATRL) [Na+/Pi cotransporter 2] | 1 (A450 nm 0-1) | 1 (A450 nm 0-1) | –
4 | CC(C)C[C@H](NC(=O)[C@H](CC(=O)O)NC(=O)[C@H](CO)NC(=O)[C@H](CCC(=O)O)NC(=O)CNC(=O)[C@H](Cc1ccc(O)cc1)NC(=O)[C@H](CC(C)C)NC(=O)[C@H](C)NC(=O)[C@H](CO)NC(=O)[C@H](CO)NC(=O)[C@H](Cc1ccccc1)NC(=O)[C@H](C)NC(=O)[C@H](C)NC(=O)[C@H](Cc1ccc(O)cc1)NC(=O)[C@H](CC(=O)O)NC(=O)[C@H](CC(C)C)NC(=O)[C@H](C)NC(=O)CNC(=O)[C@@H]1CCCN1C(=O)[C@@H](NC(=O)CCCC[C@@H]1SC[C@@H]2NC(=O)N[C@@H]21)C(C)C)C(=O)O [a-actinin 2] (Biotin-VPGALDYAAFSSALYGESDL-OH; C-terminus assumed) | – | 1 (A450 nm 0-1) | 1 (A450 nm 0-1)
5 | CC[C@H](C)[C@H](NC(=O)[C@H](CCC(N)=O)NC(=O)CCCC[C@@H]1SC[C@@H]2NC(=O)N[C@@H]21)C(=O)N[C@@H](CO)C(=O)N1CCC[C@H]1C(=O)NCC(=O)NCC(=O)N[C@@H](CC(C)C)C(=O)N[C@@H](CCC(=O)O)C(=O)N1CCC[C@H]1C(=O)N1CCC[C@H]1C(=O)N[C@@H](CO)C(=O)N[C@@H](CCC(=O)O)C(=O)N[C@@H](CCCCN)C(=O)N[C@@H](Cc1c[nH]cn1)C(=O)N[C@@H](Cc1ccccc1)C(=O)N[C@@H](CCCNC(=N)N)C(=O)N[C@@H](CCC(=O)O)C(=O)N[C@H](C(=O)N[C@@H](CCC(=O)O)C(=O)N[C@H](C(=O)O)C(C)C)[C@@H](C)O [Tax] | – | 1 (A450 nm 0-1) | –
